Experimental data reported in the supplement of paper PMC11451515.

Assays:
Details in all cases: 48 h
SEM cells [1] = test: cell viability relative to DMSO control; higher = less cytotoxic
Summary of the method: (§1)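 Cells were incubated for 48 h at 37°C before CellTiter-Glo One luminescence was read. The cells were NOMO1 or SEM (500 cells/well) or P12-Ichikawa (1000 cells/well) leukemia cells, adapted for at least four passages in each medium and seeded in 1536-well plates (5 μl). Dosing used library compounds in DMSO applied by pin over 11 threefold points, 47 μM to 0.79 nM. Viability is the per-plate percentage of DMSO wells, with cell-free wells as background.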

SEM cells [2] = test: AUC of viability dose-response curve (% viability x log10 dose units); higher = less sensitive
Summary of the method: (§2)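 Leukemia cells adapted to each medium (500 or 1000 cells/well, 1536-well plates) were exposed to library compounds in DMSO for 48 h at 37°C at 11 threefold doses, 47 μM to 0.79 nM. Luminescence by CellTiter-Glo One was normalised per plate to DMSO and cell-free wells, then fitted with a four-parameter log-logistic curve on log10 dose. Curves above full viability were scaled and quality-control failures removed before area under the curve was integrated by trapezoidal rule.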

NOMO1 [3] = test: as above
Summary of the method: as §2

P12-Ichikawa [4] = test: as above
Summary of the method: as §2

NOMO1 [5] = test: cell viability relative to DMSO control; higher = less cytotoxic
Summary of the method: as §1

P12-Ichikawa [6] = test: as above
Summary of the method: as §1

NC1(c2ccc(-c3nc4ccn5c(=O)[nH]nc5c4cc3-c3ccccc3)cc2)CCC1
SEM cells [1], HPLM + 10% dialyzed FBS
Details | cell viability [%]
0.000781 µM | 123
0.00234 µM | 138
0.00702 µM | 125
0.0211 µM | 74.7
0.0632 µM | 125
0.19 µM | 104
0.569 µM | 78.3
1.71 µM | 65.1
5.12 µM | 43.8
15.4 µM | 37.9
46.1 µM | 14.4

AUC of viability dose-response curve
Details | NOMO1 [3] | P12-Ichikawa [4] | SEM cells [2]
HPLM + 10% dialyzed FBS | 392 | 396 | 322
RPMI 5 mM glucose + 10% FBS | 451 | 366 | 318
RPMI 5 mM glucose + 10% dialyzed FBS | 423 | 361 | 298

Fc1ccc(Cl)cc1-c1nc(Nc2ccncc2)c2nccnc2n1
AUC of viability dose-response curve
Details | NOMO1 [3] | P12-Ichikawa [4] | SEM cells [2]
HPLM + 10% dialyzed FBS | 461 | 463 | 453
RPMI 5 mM glucose + 10% FBS | 438 | 457 | 464
RPMI 5 mM glucose + 10% dialyzed FBS | 442 | 451 | 467

Cn1cc(/C=C/C(=O)c2cccc(F)c2)cc1/C=C/C(=O)NO
SEM cells [1], HPLM + 10% dialyzed FBS
Details | cell viability [%]
0.000781 µM | 123
0.00234 µM | 133
0.00702 µM | 120
0.0211 µM | 129
0.0632 µM | 136
0.19 µM | 120
0.569 µM | 137
1.71 µM | 128
5.12 µM | 137
15.4 µM | 132
46.1 µM | 118

AUC of viability dose-response curve
Details | NOMO1 [3] | P12-Ichikawa [4] | SEM cells [2]
HPLM + 10% dialyzed FBS | 468 | 466 | 474
RPMI 5 mM glucose + 10% FBS | 470 | 475 | 476
RPMI 5 mM glucose + 10% dialyzed FBS | 468 | 462 | 469

C/C=C/C[C@@H](C)C(=O)[C@H]1C(=O)N[C@@H](C(C)C)C(=O)N(C)CC(=O)N(C)[C@@H](CC(C)C)C(=O)N[C@@H](C(C)C)C(=O)N(C)[C@@H](CC(C)C)C(=O)N[C@@H](C)C(=O)N[C@H](C)C(=O)N(C)[C@@H](CC(C)C)C(=O)N(C)[C@@H](CC(C)C)C(=O)N(C)[C@@H](C(C)C)C(=O)N1C
SEM cells [1], RPMI 5 mM glucose + 10% dialyzed FBS
Details | cell viability [%]
0.000781 µM | 125
0.00234 µM | 125
0.00702 µM | 108
0.0211 µM | 151
0.0632 µM | 131
0.19 µM | 120
0.569 µM | 123
1.71 µM | 108
5.12 µM | 108
15.4 µM | 71.6
46.1 µM | 23.7

AUC of viability dose-response curve
Details | NOMO1 [3] | P12-Ichikawa [4] | SEM cells [2]
HPLM + 10% dialyzed FBS | 441 | 424 | 427
RPMI 5 mM glucose + 10% FBS | 466 | 413 | 406
RPMI 5 mM glucose + 10% dialyzed FBS | 461 | 411 | 424

COC1CCC(C(=O)c2ccc3nc4c(cc3c2)CCCO4)CC1 (stereo unspecified)
AUC of viability dose-response curve
Details | NOMO1 [3] | P12-Ichikawa [4] | SEM cells [2]
HPLM + 10% dialyzed FBS | 421 | 458 | 458
RPMI 5 mM glucose + 10% FBS | 430 | 453 | 422
RPMI 5 mM glucose + 10% dialyzed FBS | 437 | 460 | 438

OC[C@H]1O[C@H](C[C@@H]1O)[N]2C=NC3=C2\N=C/NC[C@H]3O
AUC of viability dose-response curve
Details | NOMO1 [3] | P12-Ichikawa [4] | SEM cells [2]
HPLM + 10% dialyzed FBS | 444 | 457 | 450
RPMI 5 mM glucose + 10% FBS | 465 | 457 | 466
RPMI 5 mM glucose + 10% dialyzed FBS | 434 | 475 | 469

COC1=NC(=NC(=C1N\C2=N\CCN2)Cl)C
cell viability [%]
Details | NOMO1 [5] | P12-Ichikawa [6] | SEM cells [1]
HPLM + 10% dialyzed FBS, 0.000781 µM | 113 | 87 | 71.4
HPLM + 10% dialyzed FBS, 0.00234 µM | 94.9 | 90 | 88.7
HPLM + 10% dialyzed FBS, 0.00702 µM | 90.3 | 83.9 | 47.6
HPLM + 10% dialyzed FBS, 0.0211 µM | 93.6 | 98.2 | 91.8
HPLM + 10% dialyzed FBS, 0.0632 µM | 111 | 94.8 | 99.9
HPLM + 10% dialyzed FBS, 0.19 µM | 104 | 94.1 | 94.1
HPLM + 10% dialyzed FBS, 0.569 µM | 89.5 | 93.4 | 114
HPLM + 10% dialyzed FBS, 1.71 µM | 109 | 95 | 102
HPLM + 10% dialyzed FBS, 5.12 µM | 82 | 93.9 | 44.4
HPLM + 10% dialyzed FBS, 15.4 µM | 97.6 | 103 | 108
HPLM + 10% dialyzed FBS, 46.1 µM | 84.8 | 109 | 100
RPMI 5 mM glucose + 10% FBS, 0.000781 µM | 79.1 | 84.1 | 81
RPMI 5 mM glucose + 10% FBS, 0.00234 µM | 83.8 | 95.6 | 79.3
RPMI 5 mM glucose + 10% FBS, 0.00702 µM | 89.1 | 88.3 | 45
RPMI 5 mM glucose + 10% FBS, 0.0211 µM | 93.1 | 95.3 | 84
RPMI 5 mM glucose + 10% FBS, 0.0632 µM | 94 | 100 | 79.6
RPMI 5 mM glucose + 10% FBS, 0.19 µM | 100 | 94.9 | 83.5
RPMI 5 mM glucose + 10% FBS, 0.569 µM | 84.2 | 101 | 106
RPMI 5 mM glucose + 10% FBS, 1.71 µM | 91.8 | 95.5 | 81.9
RPMI 5 mM glucose + 10% FBS, 5.12 µM | 92.5 | 82.6 | 34.1
RPMI 5 mM glucose + 10% FBS, 15.4 µM | 86.5 | 93.4 | 103
RPMI 5 mM glucose + 10% FBS, 46.1 µM | 90 | 107 | 99.2
RPMI 5 mM glucose + 10% dialyzed FBS, 0.000781 µM | 86.2 | 83.3 | 74.6
RPMI 5 mM glucose + 10% dialyzed FBS, 0.00234 µM | 85.8 | 91.6 | 80
RPMI 5 mM glucose + 10% dialyzed FBS, 0.00702 µM | 82.8 | 83.6 | 46.6
RPMI 5 mM glucose + 10% dialyzed FBS, 0.0211 µM | 85 | 95.1 | 102
RPMI 5 mM glucose + 10% dialyzed FBS, 0.0632 µM | 95.6 | 89.6 | 104
RPMI 5 mM glucose + 10% dialyzed FBS, 0.19 µM | 94 | 87.7 | 104
RPMI 5 mM glucose + 10% dialyzed FBS, 0.569 µM | 91.3 | 91.4 | 101
RPMI 5 mM glucose + 10% dialyzed FBS, 1.71 µM | 86.5 | 88.6 | 101
RPMI 5 mM glucose + 10% dialyzed FBS, 5.12 µM | 80.3 | 84.5 | 49.6
RPMI 5 mM glucose + 10% dialyzed FBS, 15.4 µM | 89.5 | 94 | 98.7
RPMI 5 mM glucose + 10% dialyzed FBS, 46.1 µM | 85.3 | 87.5 | 113

AUC of viability dose-response curve
Details | NOMO1 [3] | P12-Ichikawa [4] | SEM cells [2]
HPLM + 10% dialyzed FBS | 446 | 413 | 420
RPMI 5 mM glucose + 10% FBS | 429 | 450 | 380
RPMI 5 mM glucose + 10% dialyzed FBS | 418 | 424 | 426

CN(Cc1cnc2nc(N)nc(N)c2n1)c1ccc(C(=O)N[C@@H](CCC(=O)O)C(=O)O)cc1
Details | cell viability [%]
NOMO1 [5], RPMI 5 mM glucose + 10% FBS, 0.000781 µM | 116
NOMO1 [5], RPMI 5 mM glucose + 10% FBS, 0.00234 µM | 125
NOMO1 [5], RPMI 5 mM glucose + 10% FBS, 0.00702 µM | 123
NOMO1 [5], RPMI 5 mM glucose + 10% FBS, 0.0211 µM | 135
NOMO1 [5], RPMI 5 mM glucose + 10% FBS, 0.0632 µM | 121
NOMO1 [5], RPMI 5 mM glucose + 10% FBS, 0.19 µM | 136
NOMO1 [5], RPMI 5 mM glucose + 10% FBS, 0.569 µM | 107
NOMO1 [5], RPMI 5 mM glucose + 10% FBS, 1.71 µM | 104
NOMO1 [5], RPMI 5 mM glucose + 10% FBS, 5.12 µM | 73.1
NOMO1 [5], RPMI 5 mM glucose + 10% FBS, 15.4 µM | 26.7
NOMO1 [5], RPMI 5 mM glucose + 10% FBS, 46.1 µM | 24.4
SEM cells [1], HPLM + 10% dialyzed FBS, 0.000781 µM | 115
SEM cells [1], HPLM + 10% dialyzed FBS, 0.00234 µM | 141
SEM cells [1], HPLM + 10% dialyzed FBS, 0.00702 µM | 122
SEM cells [1], HPLM + 10% dialyzed FBS, 0.0211 µM | 133
SEM cells [1], HPLM + 10% dialyzed FBS, 0.0632 µM | 119
SEM cells [1], HPLM + 10% dialyzed FBS, 0.19 µM | 53.5
SEM cells [1], HPLM + 10% dialyzed FBS, 0.569 µM | 43
SEM cells [1], HPLM + 10% dialyzed FBS, 1.71 µM | 37
SEM cells [1], HPLM + 10% dialyzed FBS, 5.12 µM | 25.7
SEM cells [1], HPLM + 10% dialyzed FBS, 15.4 µM | 18
SEM cells [1], HPLM + 10% dialyzed FBS, 46.1 µM | 15.2

AUC of viability dose-response curve
Details | NOMO1 [3] | P12-Ichikawa [4] | SEM cells [2]
HPLM + 10% dialyzed FBS | 304 | 245 | 277
RPMI 5 mM glucose + 10% FBS | 390 | 277 | 328
RPMI 5 mM glucose + 10% dialyzed FBS | 278 | 258 | 249
